Consider four compounds from paper PMC6612245 (Journal of the American Chemical Society, 2019).

Common to all, as to type: biochemical
In one assay the target is T1, ForC (Streptomyces kaniharaensis, UniProt A0A5S9FY43).
T1 sequence (A0A5S9FY43 1-333): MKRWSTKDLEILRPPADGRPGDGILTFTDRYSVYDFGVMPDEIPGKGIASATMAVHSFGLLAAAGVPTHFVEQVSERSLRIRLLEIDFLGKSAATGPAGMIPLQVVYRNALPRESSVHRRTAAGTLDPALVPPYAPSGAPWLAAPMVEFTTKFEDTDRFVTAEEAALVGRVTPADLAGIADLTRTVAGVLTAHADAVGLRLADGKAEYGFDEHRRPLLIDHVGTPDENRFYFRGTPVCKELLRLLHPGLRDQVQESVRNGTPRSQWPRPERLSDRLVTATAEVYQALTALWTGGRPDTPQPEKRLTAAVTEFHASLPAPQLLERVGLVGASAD
Nature of the assay: anion exchange HPLC, substrate consumption. To be noted: L-aspartate and ATP; 4 h.

In assay [1] the target is T2, ForH (Streptomyces kaniharaensis, UniProt A0A4V8H038). Nature of the assay: HPLC of product 7b. To be noted: cyclization to 7b; 10 min incubation.
Assay [2] has as its target T2, ForH. The assay can be described thus: HPLC of product 7a. To be noted: cyclization to 7a; 10 min incubation.
The target in assay [3] is T3, EcPurH (Escherichia coli, UniProt P15639). The assay can be described thus: HPLC. To be noted: cyclization to 7a.
T3 sequence (P15639 whole entry): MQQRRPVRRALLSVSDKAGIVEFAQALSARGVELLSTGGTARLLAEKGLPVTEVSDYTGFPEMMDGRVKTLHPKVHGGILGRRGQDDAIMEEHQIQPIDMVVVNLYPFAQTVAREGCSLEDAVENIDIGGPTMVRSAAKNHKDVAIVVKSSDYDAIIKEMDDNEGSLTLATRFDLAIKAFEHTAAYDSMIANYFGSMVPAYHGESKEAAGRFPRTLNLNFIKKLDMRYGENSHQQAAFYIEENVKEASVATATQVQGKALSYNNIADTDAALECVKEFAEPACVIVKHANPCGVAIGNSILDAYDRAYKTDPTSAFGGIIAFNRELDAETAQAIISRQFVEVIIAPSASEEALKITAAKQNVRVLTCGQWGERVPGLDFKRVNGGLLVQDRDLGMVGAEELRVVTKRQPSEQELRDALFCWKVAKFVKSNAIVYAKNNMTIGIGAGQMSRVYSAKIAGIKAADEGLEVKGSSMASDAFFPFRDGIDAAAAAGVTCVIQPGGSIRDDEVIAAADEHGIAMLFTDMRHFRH
Assay [4] concerns the target T3, EcPurH. The assay can be described thus: enzymatic preparation of 6b. To be noted: formylation to 6b.
The target of the next assay is T4, SkPurH (Streptomyces kaniharaensis, UniProt A0A6N7KQI7).
T4 sequence (A0A6N7KQI7 24-525): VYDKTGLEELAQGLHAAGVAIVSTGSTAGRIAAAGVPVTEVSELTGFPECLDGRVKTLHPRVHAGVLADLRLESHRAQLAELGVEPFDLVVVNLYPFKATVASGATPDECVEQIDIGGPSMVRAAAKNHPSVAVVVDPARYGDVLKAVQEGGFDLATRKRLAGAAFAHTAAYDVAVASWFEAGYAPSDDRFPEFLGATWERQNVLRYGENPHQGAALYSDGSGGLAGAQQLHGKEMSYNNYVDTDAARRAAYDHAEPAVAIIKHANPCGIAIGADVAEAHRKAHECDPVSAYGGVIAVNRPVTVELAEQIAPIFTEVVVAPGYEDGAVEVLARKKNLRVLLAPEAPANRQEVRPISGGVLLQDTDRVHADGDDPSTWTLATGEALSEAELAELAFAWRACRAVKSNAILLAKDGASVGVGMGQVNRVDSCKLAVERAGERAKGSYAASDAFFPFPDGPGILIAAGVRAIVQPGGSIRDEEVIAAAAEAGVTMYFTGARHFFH
The assay can be described thus: HPLC of product 6b. The following applies: N10-formyl-THF; formylation without cyclization; 1 h.

With `Nc1c([C@@H]2O[C@H](COP(=O)(O)O)[C@@H](O)[C@H]2O)n[nH]c1C(=O)O` [3b], the “anion exchange HPLC, substrate consumption” value on ForC was “Incubation of 3b with ForC along with L-aspartate and ATP led to the production”. With `NC(=O)c1[nH]nc([C@@H]2O[C@H](COP(=O)(O)O)[C@@H](O)[C@H]2O)c1NC=O` [6b], the “HPLC of product 7b” value at ForH [1] is “ForH demonstrates cyclase activity towards both 6a and 6b”. Consider `NC(=O)c1ncn([C@@H]2O[C@H](COP(=O)(O)O)[C@@H](O)[C@H]2O)c1NC=O` [6a], for which, on ForH [2], the “HPLC of product 7a” value is “ForH demonstrates cyclase activity towards both 6a and 6b”. For the same compound, the “HPLC (supplement)” value on EcPurH [3] is 6a could be processed to 7a, while 6b could not be converted to 7b.

Turning to `NC(=O)c1[nH]nc([C@@H]2O[C@H](COP(=O)(O)O)[C@@H](O)[C@H]2O)c1N` [5b], at EcPurH [4], the “enzymatic preparation of 6b” value is on record as 6b was enzymatically prepared from 5b using E. coli PurH as the catalyst. At SkPurH, the “HPLC of product 6b” value is reported as “incubation of 5b with S. kaniharaensis PurH (SkPurH) resulted in formylation of the pyrazolic amide”.
